The values below come from US4277497A, “Analgesic 2-(M-benzoylphenoxy)-propionic acid derivatives” (Unicler, priority 1978, dated 1981).

Structures can show the parent of a compound that is named as a salt.

In the first series the test system is carrageenin oedema. The series is described as follows: Carrageenin oedema test (Winter and Risley's technique), anti-inflammatory activity. It counts as in vivo, rats (Wistar strain, female). Particulars: rats, inhibition of oedema compared with control batch. How it is done:
The anti-inflammatory activity was measured by the carrageenin oedema test according to Winter and Risley's technique (Proc. Soc. Exp. Biol. 111, 544, 1962). The test was carried out on batches of 10 Wistar strain female rats weighing 180 g, which receives the products in an amount of 1/10 of the LD50. The anti-inflammatory activity corresponds to the inhibition of the oedema in the treated batch compared with the control batch.
(The carrageenan paw model is a standard test of acute inflammation.)
As for `Cc1c(OC(C)C(=O)O)cccc1C(=O)c1ccc(Cl)cc1` (stereo not shown) [Lysine salt of Ex. 6], the “Anti-inflammatory activity at 1/10 of LD50” value (“Anti-inflammatory activity” below) is given as 57%.

With `Cc1c(OC(C)C(=O)O)cccc1C(=O)c1ccc(Cl)cc1` (stereo not shown) [Example 6], the “Anti-inflammatory activity” value amounted to 46%.

In the case of `Cc1c(OC(C)C(=O)O)cccc1C(=O)c1ccccc1` (stereo not shown) [Example 2], the “Anti-inflammatory activity” value is 33%.

On to `Cc1ccc(C(=O)c2cccc(OC(C)C(=O)O)c2)c(C)c1` (stereo not shown) [Example 11], for which the “Anti-inflammatory activity” value is 41%.

In the case of `CC(Oc1cccc(C(=O)c2ccccc2)c1)C(=O)O` (stereo not shown) [Lysine salt of Ex. 1], the “Anti-inflammatory activity” value is given as 50%.

`Cc1ccc(C(=O)c2ccc(Cl)cc2)cc1OC(C)C(=O)O` (stereo not shown) [Example 7]: the “Anti-inflammatory activity” value came out at 21%.

Take `Cc1ccc(C(=O)c2cccc(OC(C)C(=O)O)c2C)cc1` (stereo not shown) [Example 10]: the “Anti-inflammatory activity” value is on record as 32%.

As to `CCOC(=O)C(C)Oc1cccc(C(=O)c2ccc(Cl)cc2)c1C` (stereo not shown) [Ethyl ester of Example 6], the “Anti-inflammatory activity” value turned out to be 62%.

In the case of `Cc1ccc(C(=O)c2cccc(OC(C)C(=O)O)c2)cc1` (stereo not shown) [Lysine salt of Ex. 8], the “Anti-inflammatory activity” value was 30%.

With `CC(Oc1cccc(C(=O)c2ccc(Cl)cc2Cl)c1)C(=O)O` (stereo not shown) [Example 3], the “Anti-inflammatory activity” value stood at 18%.

As to `CC(Oc1cccc(C(=O)c2ccc(Br)cc2)c1)C(=O)O` (stereo not shown) [Example 4], the “Anti-inflammatory activity” value was 45%.

`CC(Oc1cccc(C(=O)c2ccc(F)cc2)c1)C(=O)O` (stereo not shown) [Example 5]: the “Anti-inflammatory activity” value is listed as 26%.

Consider `CC(Oc1cccc(C(=O)c2ccccc2)c1)C(=O)O` (stereo not shown) [Example 1], for which the “Anti-inflammatory activity” value is reported as 17%.

As to `Cc1ccc(C(=O)c2cccc(OC(C)C(=O)O)c2)cc1` (stereo not shown) [Example 8], the “Anti-inflammatory activity” value was found to be 40%.

The next series concerns mice. Description: Oral toxicity in mice (Miller and Tainter's method). Format: in vivo.
Conditions: not given
How it is done: (§1) The toxicity of the compounds according to the invention administered orally was also determined in mice by Miller and Tainter's method.
`Cc1c(OC(C)C(=O)O)cccc1C(=O)c1ccc(Cl)cc1` (stereo not shown) [Lysine salt of Ex. 6] had an LD50 toxicity orally of 1000 mg/kg.

In turn, `CC(Oc1cccc(C(=O)c2ccccc2)c1)C(=O)O` (stereo not shown) [Lysine salt of Ex. 1] returned an LD50 toxicity orally of 2000 mg/kg.

`Cc1ccc(C(=O)c2cccc(OC(C)C(=O)O)c2)cc1` (stereo not shown) [Lysine salt of Ex. 8] gave an LD50 toxicity orally of 2000 mg/kg.

System in another series: not listed separately
The description is as above. Format: in vivo. As to conditions: mouse, in vivo, po, read-out: LD50 toxicity orally. The method, then: as §1
Broadly, the LD50 is the dose at which mortality reaches 50%. As for `Cc1c(OC(C)C(=O)O)cccc1C(=O)c1ccc(Cl)cc1Cl` (stereo not shown) [Example 9], the LD50 is 750 mg/kg.

In the case of `Cc1c(OC(C)C(=O)O)cccc1C(=O)c1ccc(Cl)cc1` (stereo not shown) [Example 6], the LD50 came to 750 mg/kg.

Regarding `Cc1c(OC(C)C(=O)O)cccc1C(=O)c1ccccc1` (stereo not shown) [Example 2], the LD50 stood at 750 mg/kg.

In the case of `Cc1ccc(C(=O)c2cccc(OC(C)C(=O)O)c2)c(C)c1` (stereo not shown) [Example 11], the LD50 amounted to 2000 mg/kg.

With `Cc1ccc(C(=O)c2ccc(Cl)cc2)cc1OC(C)C(=O)O` (stereo not shown) [Example 7], the LD50 stood at 500 mg/kg.

`Cc1ccc(C(=O)c2cccc(OC(C)C(=O)O)c2C)cc1` (stereo not shown) [Example 10]: the LD50 was determined as 600 mg/kg.

On to `CCOC(=O)C(C)Oc1cccc(C(=O)c2ccc(Cl)cc2)c1C` (stereo not shown) [Ethyl ester of Example 6], for which the LD50 was 1500 mg/kg.

Turning to `CC(Oc1cccc(C(=O)c2ccc(Cl)cc2Cl)c1)C(=O)O` (stereo not shown) [Example 3], the 50% lethal dose (LD50) amounted to 1500 mg/kg.

`CC(Oc1cccc(C(=O)c2ccc(Br)cc2)c1)C(=O)O` (stereo not shown) [Example 4]: the LD50 was determined as 1000 mg/kg.

Regarding `CC(Oc1cccc(C(=O)c2ccc(F)cc2)c1)C(=O)O` (stereo not shown) [Example 5], the LD50 came out at 1500 mg/kg.

Take `CC(Oc1cccc(C(=O)c2ccccc2)c1)C(=O)O` (stereo not shown) [Example 1]: the LD50 worked out at 1000 mg/kg.

As for `Cc1ccc(C(=O)c2cccc(OC(C)C(=O)O)c2)cc1` (stereo not shown) [Example 8], the LD50 stood at 1500 mg/kg.

Another series deals with painful syndrome produced in mice by phenylbenzoquinone. The series is described as follows: Analgesic test of Siegmund, Cadmus and Lu (phenylbenzoquinone-induced painful syndrome, stretching). As to conditions: oral, dose 1/10 of LD50, 30 minutes before phenylbenzoquinone. Format: in vivo, mice (Swiss strain). The method, then:
They were in particular subjected to the analgesic test of Siegmund, Cadmus and Lu (Proc. Soc. Exp. Biol. Med. 95, 729, 1957) according to which a characteristic painful syndrome is produced in mice by injecting phenylbenzoquinone.
The animals used are Swiss strain mice, weighing 20±2 grams.
The animals are distributed in random batches of 10, but are tested individually. Each test comprises at least two batches.
a control batch that receives the solvent and phenylbenzoquinone
a batch treated with the product being investigated.
The investigated products are administered orally, in an amount of 1/10 or 1/40 of the LD50, 30 minutes before the injection of the irritant agent. Each mouse then receives 0.25 ml of a 0.02% phenylbenzoquinone solution intraperitoneally.
The pain syndrome produced by the injection of phenylbenzoquinone causes the animals to stretch their stomach and rear paws, and at the crisis point of the reaction the animal's flanks are very contracted. 5 minutes after the injection of the irritant, the stretching is counted for a period of 10 minutes.
The average number of stretchings is calculated for each batch. The activity of the product under investigations is determined by comparison with the average number of stretchings in the treated animals (N) and the average number of stretchings in the control animals (N'). [formula]
The statistical significance of the result thus obtained is evaluated by Fisher's non-parametric test.
Consider `Cc1c(OC(C)C(=O)O)cccc1C(=O)c1ccc(Cl)cc1Cl` (stereo not shown) [Example 9], for which the “Analgesic activity at 1/10 of LD50” value is 64%.

As to `Cc1c(OC(C)C(=O)O)cccc1C(=O)c1ccc(Cl)cc1` (stereo not shown) [Lysine salt of Ex. 6], the “Analgesic activity at 1/10 of LD50” value is recorded as 80%.

For the compound `Cc1c(OC(C)C(=O)O)cccc1C(=O)c1ccc(Cl)cc1` (stereo not shown) [Example 6], the “Analgesic activity at 1/10 of LD50” value was 94%.

With `Cc1c(OC(C)C(=O)O)cccc1C(=O)c1ccccc1` (stereo not shown) [Example 2], the “Analgesic activity at 1/10 of LD50” value worked out at 73%.

Consider `Cc1ccc(C(=O)c2cccc(OC(C)C(=O)O)c2)c(C)c1` (stereo not shown) [Example 11], for which the “Analgesic activity at 1/10 of LD50” value stood at 97%.

For `CC(Oc1cccc(C(=O)c2ccccc2)c1)C(=O)O` (stereo not shown) [Lysine salt of Ex. 1], the “Analgesic activity at 1/10 of LD50” value amounted to 97%.

Consider `Cc1ccc(C(=O)c2ccc(Cl)cc2)cc1OC(C)C(=O)O` (stereo not shown) [Example 7], for which the “Analgesic activity at 1/10 of LD50” value is on record as 81%.

As for `Cc1ccc(C(=O)c2cccc(OC(C)C(=O)O)c2C)cc1` (stereo not shown) [Example 10], the “Analgesic activity at 1/10 of LD50” value turned out to be 92%.

On to `CCOC(=O)C(C)Oc1cccc(C(=O)c2ccc(Cl)cc2)c1C` (stereo not shown) [Ethyl ester of Example 6], for which the “Analgesic activity at 1/10 of LD50” value was determined as 77%.

For `Cc1ccc(C(=O)c2cccc(OC(C)C(=O)O)c2)cc1` (stereo not shown) [Lysine salt of Ex. 8], the “Analgesic activity at 1/10 of LD50” value is listed as 87%.

Turning to `CC(Oc1cccc(C(=O)c2ccc(Cl)cc2Cl)c1)C(=O)O` (stereo not shown) [Example 3], the “Analgesic activity at 1/10 of LD50” value came to 98.5%.

Consider `CC(Oc1cccc(C(=O)c2ccc(Br)cc2)c1)C(=O)O` (stereo not shown) [Example 4], for which the “Analgesic activity at 1/10 of LD50” value was determined as 84%.

For `CC(Oc1cccc(C(=O)c2ccc(F)cc2)c1)C(=O)O` (stereo not shown) [Example 5], the “Analgesic activity at 1/10 of LD50” value came to 89%.

On to `CC(Oc1cccc(C(=O)c2ccccc2)c1)C(=O)O` (stereo not shown) [Example 1], for which the “Analgesic activity at 1/10 of LD50” value is given as 86%.

In the case of `Cc1ccc(C(=O)c2cccc(OC(C)C(=O)O)c2)cc1` (stereo not shown) [Example 8], the “Analgesic activity at 1/10 of LD50” value was found to be 84%.

The series is the same for the next values; noted with them: oral, dose 1/40 of LD50, 30 minutes before phenylbenzoquinone.
With `Cc1c(OC(C)C(=O)O)cccc1C(=O)c1ccc(Cl)cc1` (stereo not shown) [Lysine salt of Ex. 6], the “Analgesic activity at 1/40 of LD50” value worked out at 89%.

For `Cc1c(OC(C)C(=O)O)cccc1C(=O)c1ccc(Cl)cc1` (stereo not shown) [Example 6], the “Analgesic activity at 1/40 of LD50” value was determined as 83%.

Turning to `Cc1ccc(C(=O)c2cccc(OC(C)C(=O)O)c2)c(C)c1` (stereo not shown) [Example 11], the “Analgesic activity at 1/40 of LD50” value came out at 31%.

In the case of `CC(Oc1cccc(C(=O)c2ccccc2)c1)C(=O)O` (stereo not shown) [Lysine salt of Ex. 1], the “Analgesic activity at 1/40 of LD50” value was 86%.

As for `CCOC(=O)C(C)Oc1cccc(C(=O)c2ccc(Cl)cc2)c1C` (stereo not shown) [Ethyl ester of Example 6], the “Analgesic activity at 1/40 of LD50” value is 73%.

As for `Cc1ccc(C(=O)c2cccc(OC(C)C(=O)O)c2)cc1` (stereo not shown) [Lysine salt of Ex. 8], the “Analgesic activity at 1/40 of LD50” value is on record as 36%.

With `CC(Oc1cccc(C(=O)c2ccc(Cl)cc2Cl)c1)C(=O)O` (stereo not shown) [Example 3], the “Analgesic activity at 1/40 of LD50” value is recorded as 71%.

For `CC(Oc1cccc(C(=O)c2ccc(Br)cc2)c1)C(=O)O` (stereo not shown) [Example 4], the “Analgesic activity at 1/40 of LD50” value is reported as 58%.

Turning to `CC(Oc1cccc(C(=O)c2ccc(F)cc2)c1)C(=O)O` (stereo not shown) [Example 5], the “Analgesic activity at 1/40 of LD50” value worked out at 63%.

`CC(Oc1cccc(C(=O)c2ccccc2)c1)C(=O)O` (stereo not shown) [Example 1]: the “Analgesic activity at 1/40 of LD50” value was determined as 84%.

As for `Cc1ccc(C(=O)c2cccc(OC(C)C(=O)O)c2)cc1` (stereo not shown) [Example 8], the “Analgesic activity at 1/40 of LD50” value amounted to 86%.
